Laboratory results reported in patent US11752125B2, “Anti-neuroinflammatory and protective compounds in Achillea fragrantissima” (THE STATE OF ISRAEL MINISTRY OF AGRICULTURE & RURAL …, priority 2013, dated 2023).

Columns and labels:
TNFα = TNFα transcripts in LPS-stimulated microglial cells (real-time PCR); format: cell-based, rat; conditions: 20 μg/mL; LPS 4.5 ng/mL, 5 h
Method: (§1) RNA was extracted by the RNeasy Plus Mini Kit (Qiagen, Hilden, Germany) according to the manufacturer's instructions. Genomic DNA was removed from the RNA samples by using 50 units of RNase-free DNaseI at 37° C. for 1 h. RNA ([…]) was converted to cDNA using the Thermo Scientific Verso cDNA kit (Thermo Fisher Scientific Inc) following the manufacturer's protocol. The cDNA was used for quantitative real-time PCR amplification with TaqMan chemistry (Applied Biosystems) using Rat MMP9, TNFα, IL1β, iNOS, COX2 pre-designed TaqMan Gene Expression Assay from Applied Biosystems (Rn00579162_m1, Rn00562055_m1, Rn00580432_m1, Rn00561646_m1, Rn01483828_m1, respectively). […] All results from three technical replicates were normalized relative to α-Tubulin (Rn01532518.g1) and GAPDH (Rn01775763.g1), respectively, and expressed as relative expression ratios calculated (relative quantity, RQ) using the comparative method and based on the data that were created by the ABI PRISM 7700 Sequence Detection System (using version 1.6 software).
(§2) Procedure 23. Measurement of IL-1Beta, TNFalpha, iNOS, COX-2 and MMP-9 Transcripts in LPS-Activated Microglial Cells by Quantitative Real-Time PCR Analysis. • 1. […]
(§3) Microglial cells were treated with 20 μg/mL of achillolide A, followed by stimulation with LPS (4.5 ng/mL). […] The results are expressed as percentages relative to LPS-stimulated cells. […]

COX-2 = COX-2 transcripts in LPS-stimulated microglial cells (real-time PCR); format: cell-based, rat; conditions: 20 μg/mL; LPS 4.5 ng/mL, 5 h
Method: as §1, §2, §3

iNOS = iNOS transcripts in LPS-stimulated microglial cells (real-time PCR); format: cell-based, rat; conditions: 20 μg/mL; LPS 4.5 ng/mL, 5 h
Method: as §1, §2, §3

glutamate = experiment: Glutamate secretion from LPS-activated microglial cells; format: cell-based, rat; conditions: LPS 100 ng/mL, 20 h
Method: For glutamate measurements, 3.5×10^4 cells/well were plated on a 24-well tissue culture plate. After 24 h of incubation in DMEM containing 10% FBS, cells were stimulated with LPS (100 ng/mL) and treated with different concentrations of achillolide A. Conditioned media were collected twenty hours later, and were tested for glutamate levels using a colorimetric enzymatic assay kit (glutamate assay kit, BioVision, CA, USA) according to the manufacturer's instructions. 7. Measure the levels of glutamate using a colorimetric enzymatic assay kit (glutamate assay kit, BioVision, CA, USA) according to the manufacturer's instructions. Microglial cells were treated with the indicated concentrations of achillolide A, followed by stimulation with LPS (100 ng/mL). After 20 h, conditioned media were collected and tested for glutamate levels by a commercial kit. Values represent the means±SEM (n=4 for each treatment). ** p<0.01; *** p<0.001, compared to LPS-stimulated cells.

primary astrocytes = conditions: Nones et al., 2012; cited from earlier work
ERK1/2 = experiment: SNP-induced ERK1/2 phosphorylation in N2a cells (ELISA); format: cell-based; conditions: concomitant treatment 40 min, total protein not affected
Method: N2a cells were treated concomitantly with SNP and TTF for 40 min. Cells were extracted and the levels of phosphorylated or total ERK1/2 were determined by specific ELISA kits. The results are shown in FIG. 19 and are the mean±SEM of one experiment (n=2).

N2a neuronal cells = experiment: SNP-induced ROS elevation in N2a cells; format: cell-based; conditions: TTF 2 μM; SNP 250 μM; 20 h
Method: N2a neuronal cells were pre-loaded with DCF-DA for 30 min and washed. TTF (2 μM) was added to cells before (−2 h, −1 h), concomitant with (0) or after (1 h, 2 h) the addition of SNP (250 μM). ROS levels in neuronal cells were measured 20 h after the application of SNP. The results are shown in FIG. 18 and are the mean±SEM of two different experiments (n=15).

## C=C1CCC2=C(CO)C(=O)O[C@H]2/C=C(\C)[C@H](OC(C)=O)CC1=O [achillolide A]
TNFα
  effect on LPS-induced TNFα transcript levels: significantly inhibited
COX-2
  effect on LPS-induced COX-2 transcript levels: significantly inhibited
iNOS
  effect on LPS-induced iNOS transcript levels: significantly inhibited
glutamate
  inhibition of the LPS-induced levels of secreted glutamate: 80%

## O=c1c(O)c(-c2ccc(O)c(O)c2)oc2cc(O)cc(O)c12 [quercetin, 3,3′,4′,5,7-Pentahydroxyflavone, reference compound]
Primary astrocytes
  nontoxic concentration in primary astrocytes: up to 100 μM

## COc1cc(-c2oc3cc(OC)c(OC)c(O)c3c(=O)c2O)ccc1O [TTF, 3,5,4′-trihydroxy-6,7,3′-trimethoxyflavone]
ERK1/2
  effect on SNP-induced phosphorylation of ERK1/2: significantly inhibited
N2a neuronal cells
  effect on SNP-induced ROS elevation: attenuates the elevation in ROS levels
